Blank lines part the entries; values can stand above or below the compound they belong to.
Tests used:
[1] = molecular target: D2 /ml receptor; test: Competition binding assay with [3H]-spiperone, D2/ml chimeric receptor; parameters: species or system human; conditions: for Ki: D2/ml Receptor, 0.5 nM [3H]-spiperone, anti-log of mean log Ki, three experiments, Cheng-Prusoff
Method: (§1) Cells were detached from culture flasks with EDTA, pelleted at 1,000×g and resuspended in 1× binding buffer (100 mM Tris; 120 mM NaCl; 5 mM KCl; 1 mM MgCl2; 2 mM CaCl2; 1.1 mM ascorbic acid; pH 7.4) at ~1×10^6 cells/ml. Cells were homogenized with a Polytron (Brinkman) and the crude membrane fraction was pelleted at 17,000× g for 10 min. […] Triplicate binding reactions were done in IX binding buffer for 30 min. at 37°, then stopped by filtration through glass-fiber filters (Skatron) that were pre-soaked in 0.1% polyethyleneimine, followed by a 5 sec. wash with ice cold 0.1× binding buffer. […] Competing ligands were all from Research Biochemicals Inc.

[2] = molecular target: T1, D2(414) receptor (Homo sapiens, UniProt P14416); test: Competition binding assay with [3H]-spiperone, D2(414) receptor; parameters: expressed in transfected cells
T1 sequence (P14416 1-414 isoform P14416-2): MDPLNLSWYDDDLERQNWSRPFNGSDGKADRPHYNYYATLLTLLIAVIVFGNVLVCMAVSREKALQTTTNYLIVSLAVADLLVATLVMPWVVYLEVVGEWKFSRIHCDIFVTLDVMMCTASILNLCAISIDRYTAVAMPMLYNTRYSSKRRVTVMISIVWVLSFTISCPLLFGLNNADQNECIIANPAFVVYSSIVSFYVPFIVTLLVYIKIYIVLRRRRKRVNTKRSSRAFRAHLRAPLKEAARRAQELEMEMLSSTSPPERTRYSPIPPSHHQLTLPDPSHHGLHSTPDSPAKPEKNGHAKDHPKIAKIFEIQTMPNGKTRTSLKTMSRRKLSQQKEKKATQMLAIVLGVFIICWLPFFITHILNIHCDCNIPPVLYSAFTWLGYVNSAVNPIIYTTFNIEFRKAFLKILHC
Method: as §1

[3] = tested on: CHO cells; test: Radioligand specific binding in non-transfected CHO cells; parameters: species or system Chinese hamster; conditions: preliminary studies
Method: Cells were detached from culture flasks with EDTA, pelleted at 1,000×g and resuspended in 1× binding buffer (100 mM Tris; 120 mM NaCl; 5 mM KCl; 1 mM MgCl2; 2 mM CaCl2; 1.1 mM ascorbic acid; pH 7.4) at ~1×10^6 cells/ml. Cells were homogenized with a Polytron (Brinkman) and the crude membrane fraction was pelleted at 17,000× g for 10 min. […] Triplicate binding reactions were done in IX binding buffer for 30 min. at 37°, then stopped by filtration through glass-fiber filters (Skatron) that were pre-soaked in 0.1% polyethyleneimine, followed by a 5 sec. wash with ice cold 0.1× binding buffer.

[4] = tested on: D2 /ml chimeric receptor; conditions: dopamine 0.1-1000 μM, CHO cells expressing D2/ml receptor (FIG. 3B)
[5] = tested on: non-transfected CHO cells; test: [Ca+2]i assay (Fura-2) in non-transfected CHO cells
[6] = molecular target: T1, D2(414) receptor; conditions: dopamine 100 μM, CHO cells expressing D2(414) receptor (FIG. 3A)

Compound: Oc1cc2c(cc1O)C(c1ccccc1)CNCC2 (stereo not drawn) [SKF-38393]
- Ki [1]: 36 µM

Compound: O=C(CCCN1CCC2(CC1)C(=O)NCN2c1ccccc1)c1ccc(F)cc1 [[^3 H]-spiperone]
- Specific binding [3]: no detectable specific binding

Compound: NCCc1ccc(O)c(O)c1 [Dopamine]
- [Ca+2]i response [4]: elevated in a dose dependent manner
- Ki [1]: 2.1 µM
- [Ca+2]i ([5]; dopamine 1 mM): unaltered
- [Ca+2]i [6]: failed to alter

Compound: C[N+](C)(C)CCOC(N)=O [carbachol]
- [Ca+2]i ([5]; carbachol 100 μM): unaltered

Continued, values first:

- Ki [1]: 3.6 µM
- Difference in Ki between D2(414) and D2/ml receptor ([1]; comparison of Ki at the two receptors, t-test): small
- Ki [2]: 2.1 µM
Compound: CN1CCc2cc(Cl)c(O)cc2[C@@H](c2ccccc2)C1 [SCH-23390]

- Ki [1]: 0.045 µM
Compound: CCN1CCC[C@H]1CNC(=O)c1cc(S(N)(=O)=O)ccc1OC [(-) Sulpiride]

- Ki [1]: 0.027 µM
Compound: CCCN(CCc1ccccc1)C1CCc2c(O)cccc2C1 (stereo not drawn) [N-0434]

From patent US5264565A, “Nucleic acid encoding the D2 /Ml chimeric receptor” (Affymax Technologies, N.V., priority 1991, dated 1993)
